Test results reported in US20040053872A1, “New sequences” (priority 2000, published 2004).
Where two headings read alike, the source gives them in different places. Strand notation (5' to 3'): a small letter for the sugar, then the base; units joined by * are phosphorothioate-linked, units joined directly phosphodiester-linked; [ ] holds rarer units or linkages, { } end groups; capitals alone tell only the bases. r = 2'-OH (RNA)

Experiments:
[1] = molecular target: T1, recombinant HIV-1 RT, ref RT (HIV type B, clone BH 10) (Human immunodeficiency virus type 1 group M subtype B, UniProt P03366); type: biochemical; parameters: performed by recombinant HIV-1 RT:s with defined; conditions: second strand DNA synthesis, preincubation 30 minutes at 33° C., 3 hours, read-out: IC50 of indicated inhibitor in DNAp assay
From the text: The flourimetric DNA-polymerase assay used is available from Cavidi Tech AB, Uppsala, Sweden. It is based on a short DNA primer analogous to a part of the tRNA^Lys3 sequence. The template is a single stranded deoxynucleotide template with part of the sequence complementary to the primer. The enzyme reaction is dependent on all four deoxynucleotide bases. The thymidine triphosphate is, however, replaced by BrdUTP. The amount of BrdUMP incorporated into DNA during the polymerase reaction is detected with an alkaline phosphatase (Ap) conjugated anti-BrdU monoclonal antibody. An Ap substrate, 4-methylumbelliferyl phosphate, is finally used for fluorimetric product detection.
(ii) Protocol for determination of inhibition of second strand synthesis on a variable DNA template: The inhibition studies were performed in a modified DNA polymerase assay. The inhibitors were serially diluted in five steps, enzyme dilution was added and the enzyme/inhibitor mixtures were incubated for 30 minutes at 33° C. The enzyme reaction was initiated by addition of 75 μl aliquots of the enzyme/inhibitor mixture to each well of a microtiter plate containing 75 μl DNA polymerase reaction mixture per well. The polymerase reaction was allowed to proceed for 3 hours at 33° C. whereupon the reaction was terminated by a wash of the plate. […]

[2] = molecular target: T2, recombinant HIV-1 RT K103N/E478Q (Human immunodeficiency virus type 1 group M subtype B, UniProt P03366, E1077Q/K702N); conditions: binding 90 min at 33° C.
T2 construct: performed by recombinant HIV-1 RT:s with defined
Procedure: (§1) (iii) Protocol for RT binding inhibition (BIC) assay: The study was performed in a modified DNA polymerase assay. The inhibitors were serially diluted in five steps, enzyme dilution was added and the enzyme/inhibitor mixtures were incubated for 30 minutes at 33° C. Aliquots of the enzyme/inhibitor mixture were transferred to each well of a microtiter plate containing either immobilised primer, or primer/template. The enzyme was allowed to bind to the immobilised polymer for 90 min at 33° C. The amount of RT used was standardised to an activity corresponding to 40-60 pg (3.3-5.0×10^−16 mol) reference HIV-1 RT per well. The plates were then washed to remove unbound enzyme whereupon the amount of bound enzyme was determined by addition of the appropriate reaction solution for polymerisation (i e a reaction solution devoid of primer for studies of primer binding and a reaction solution devoid of both primer and template for studies of binding to primed template). The polymerase reaction was allowed to proceed for 3 hours at 33° C., whereupon the reaction was terminated by a wash of the plate.
(§2) The capacity of the indicated substances to inhibit the binding to primer or to primed DNA template of a panel of recombinant HIV 1 subtype B RTs was studied according to “Protocol for RT binding inhibition (BIC) assay” (protocol (iii) above).

[3] = molecular target: T1, recombinant HIV-1 RT, ref RT (HIV type B, clone BH 10); conditions: read-out: Inhibition of binding to primer (BIC50), immobilised primer, binding 90 min at 33° C.
Procedure: as §1, §2

[4] = test system: Mut1 (RNase H inactive mutant of HIV-1 RT); test: Gel mobility shifts in native polyacrylamide gel electrophoresis (PAGE); type: binding; conditions: native 20% PAGE; ammonium sulphate up to […]
From the text: In the following experiment, the terms “34-mer” and “35-mer” refer to SEQ ID NO:3 (produced in example A1 above) and SEQ ID NO:4 (produced in example A2 above), respectively. […] Natural RT molecules have an RNase H activity which normally cleaves RNA molecules. […] This mutant is produced according to the method given in Schatz, O., Cromme, F. V., Grüninger-Leitch, F. and Le Grice, S. F. J., Febs Letter. Vol.257, No.2 p.311-314. This RT-mutant is further on referred to as Mut1. The following experiments are carried out:
2. Gel mobility shifts in polyacrylamide gel electrophoresis (PAGE) experiments.
a) Native 20% PAGE gel is run at 4-5° C. Samples are incubated at 4° C. in 50 mM hepes buffer and 5 mM magnesium chloride and varying salt concentrations as indicated below.
Samples are incubated for 90 min at 4° C. prior to a further 10 min incubation at 4° C. with ammonium sulphate and/or KCl. Samples applied to lanes 4 and 5 have twice the amount of 34-mer used for the other samples.
b) Native 20% PAGE gel run at 4-5° C. Samples are incubated at 4° C. in 50 mM hepes buffer and 5 mM magnesium chloride, with varying concentrations of ammonium sulphate.
Native 20% PAGE gel is run at 4-5° C. Samples are incubated at 4° C. in 50 mM hepes buffer, 15 mM manganese sulphate, 1 mM EDTA and 0.25 mM EGTA.
Samples are incubated 10 min at room temperature prior to a 60 min incubation at 4° C. One μl of sample solution is applied per lane. Electrophoresis is conducted with up to 400 volts while cooling to approximately 4° C. After 0.209 kWh the gel is silver stained.

Substance: substance 199: 35-mer RNA molecule having the sequence set out in SEQ ID NO:5; similar to SEQ ID NO:4 with some naturally occurring nucleotide derivatives (GCUCAGNCGGNAGAGCANCAGACUUUUAANCUGAN; RNA, backbone, methylation of C and the base at N not given here; naturally occurring modified nucleosides at n positions)
- IC50 [1]: 40 nM

Substance: substance 198: 15-mer RNA phosphorothioate with the base sequence of tRNALys3 anticodon stem and loop, SEQ ID NO:7 (rC*rA*rG*rA*rC*rU*rU*rU*rU*rA*rA*rU*rC*rU*rG) [reference compound]
- IC50 ([2]; immobilised primer, read-out: Inhibition of binding to primer (BIC50)): 400 nM
- IC50 ([2]; immobilised primer/template, read-out: Inhibition of binding to template/primer (BIC50)): 1000 nM
- IC50 [3]: 100 nM
- Complex with Mut1 at high salt concentrations [4]: dissociates from Mut1
- IC50 [1]: 550 nM
